Results on 28 compounds are retold here after US6589984B1, “Benzofurylpyrone derivatives” (Teijin Limited, priority 1998, dated 2003).

Structures are written as SMILES.

One assay deals with Human hepatic cancer cells HepG2. Briefly: TG production inhibiting activity (14C-acetic acid incorporation into TG) in HepG2 cells. In kind it is cell-based. Conditions: Homo sapiens, HepG2; group criterion, alternatives: IC50 at least 10 μM and less than 100 μM, or at least 5% and less than 30% inhibition at 1 μM, or at least 30% and less than 50% inhibition at 10 μM. The method, then: Human hepatic cancer cells HepG2 were inoculated into a 24-well plate (Costar No. 3524) at 4×10^4 cells/well, and 1 ml of medium (eRDF medium containing 10% bovine serum (Kyokuto Chemical Co.)) was used for 6 day culturing with 5% CO2 at 37° C. After drawing off the supernatant medium, the cells were freshly rinsed with 1 ml of PBS(−) buffer solution (Takara Shuzo) and drawn off. This procedure was repeated twice and then 1 ml of fresh medium (eRDF medium) was added.
6-(benzofuran-2-yl)-3,5-dimethyl-4-hydroxy-2H-pyran-2-one (Example 2) was dissolved in dimethylsulfoxide (DMSO) to prepare a 20 mM sample stock solution. A diluted solution was obtained by diluting the sample solution with DMSO.
To the cells prepared above there were added the sample stock solution or its diluted solution at 5 μl per well and 10 μl of ^14C-acetic acid solution (a solution of Amersham Code No. CFA13 diluted 4.4-fold with PBS(−) buffer), and culturing was carried out for one day with 5% CO2 at 37° C.
After the culturing was completed, the culture solution was removed, and 1 ml of extraction solution (a mixture of n-hexane and isopropyl alcohol at 2:1) was added for extraction treatment on the lipid components in the cells. After the treatment, the extract containing the obtained lipid components was air-dried, the residue was redissolved in 20 μl of a mixed solution of n-hexane and ethyl acetate at 9:1, and the solution was spotted on a thin-layer chromatography plate (S319, Tokyo Kasei) and developed by thin-layer chromatography with the mixed solution mentioned above. After air-drying, the lipid components were colored with iodine vapor, the portion corresponding to TG was cut out, and the amount of TG biosynthesized was measured with a liquid scintillation counter.
By IC50 is commonly meant the midpoint of a concentration-inhibition curve. A higher IC50 goes with lower potency. Turning to `Cc1c(-c2cc3cc(OC(C)c4ccccc4C(F)(F)F)ccc3o2)oc(=O)c(C)c1O` (stereo not shown) [Example 144, 3,5-dimethyl-4-hydroxy-6-(5-(1-(2-(trifluoromethyl)phenyl)ethoxy)benzofuran-2-yl)-2H-pyran-2-one], the IC50 was in the range of 10 to 100 µM.
Still for that read-out and setting: for `Cc1c(-c2cc3cc(OCc4cc(Cl)ccc4Cl)ccc3o2)oc(=O)c(C)c1O` [Example 155, 6-(5-(2,5-dichlorobenzyloxy)benzofuran-2-yl)-3,5-dimethyl-4-hydroxy-2H-pyran-2-one] the value was 10 to 100 µM; for `Cc1c(-c2cc3cc(OCc4c(Cl)cccc4Cl)ccc3o2)oc(=O)c(C)c1O` [Example 157, 6-(5-(2,6-dichlorobenzyloxy)benzofuran-2-yl)-3,5-dimethyl-4-hydroxy-2H-pyran-2-one], 10 to 100 µM; for `Cc1c(-c2cc3cc(OCc4ccc5ccccc5c4)ccc3o2)oc(=O)c(C)c1O` [Example 175, 3,5-dimethyl-4-hydroxy-6-(5-(2-naphthylmethoxy)benzofuran-2-yl)-2H-pyran-2-one], 10 to 100 µM.
For `Cc1c(-c2cc3cc(OCC4COc5ccccc5O4)ccc3o2)oc(=O)c(C)c1O` (stereo not shown) [Example 177, 6-(5-(1,4-benzodioxan-2-ylmethoxy)benzofuran-2-yl)-3,5-dimethyl-4-hydroxy-2H-pyran-2-one], the IC50 lay in the range of 10 to 100 µM.
In the case of `CCC=CCCOc1ccc2oc(-c3oc(=O)c(C)c(O)c3C)cc2c1` [Example 179, 3,5-dimethyl-6-(5-(3-hexen-1-yloxy)benzofuran-2-yl)-4-hydroxy-2H-pyran-2-one], the IC50 was in the range of 10 to 100 µM.
Consider `CC#CCOc1ccc2oc(-c3oc(=O)c(C)c(O)c3C)cc2c1` [Example 181, 6-(5-(2-butyn-1-yloxy)benzofuran-2-yl)-3,5-dimethyl-4-hydroxy-2H-pyran-2-one], for which the IC50 fell in the range of 10 to 100 µM.
The same measure, in the same setting: for `Cc1c(-c2cc3cc(OCC4COC(C)(C)O4)ccc3o2)oc(=O)c(C)c1O` (stereo not shown) [Example 183, 3,5-dimethyl-6-(5-(2,2-dimethyl-1,3-dioxolan-4-ylmethoxy)benzofuran-2-yl)-4-hydroxy-2H-pyran-2-one] the value was 10 to 100 µM; for `CCOCCOc1ccc2oc(-c3oc(=O)c(C)c(O)c3C)cc2c1` [Example 185, 3,5-dimethyl-6-(5-(2-ethoxyethoxy)benzofuran-2-yl)-4-hydroxy-2H-pyran-2-one], 10 to 100 µM; for `Cc1c(-c2cc3cc(OCC4(C)COC4)ccc3o2)oc(=O)c(C)c1O` [Example 187, 3,5-dimethyl-4-hydroxy-6-(5-(3-methyloxetan-3-ylmethoxy)benzofuran-2-yl)-2H-pyran-2-one], 10 to 100 µM.
The same measure, in the same setting: for `C=CCCCCOc1ccc2oc(-c3oc(=O)c(C)c(O)c3C)cc2c1` [Example 191, 3,5-dimethyl-6-(5-(5-hexen-1-yloxy)benzofuran-2-yl)-4-hydroxy-2H-pyran-2-one] the value was 10 to 100 µM.
On the same count and under the same terms, for `Cc1c(-c2cc3cc(OCC(c4ccccc4)c4ccccc4)ccc3o2)oc(=O)c(C)c1O` [Example 195, 3,5-dimethyl-6-(5-(2,2-diphenylethoxy)benzofuran-2-yl)-4-hydroxy-2H-pyran-2-one] the value was 10 to 100 µM.
The compound `COc1ccc(C(Oc2ccc3oc(-c4oc(=O)c(C)c(O)c4C)cc3c2)c2ccc(OC)cc2)cc1` [Example 201, 6-(5-(bis(4-methoxyphenyl)methoxy)benzofuran-2-yl)-3,5-dimethyl-4-hydroxy-2H-pyran-2-one] came in with an IC50 of 10 to 100 µM.
On to `Cc1c(-c2cc3cc(OCCCc4ccccc4)ccc3o2)oc(=O)c(C)c1O` [Example 203, 3,5-dimethyl-4-hydroxy-6-(5-(3-phenylpropoxy)benzofuran-2-yl)-2H-pyran-2-one], for which the IC50 fell in the range of 10 to 100 µM.
Still for that read-out and setting: for `Cc1c(-c2cc3cc(OCC4CCCCC4)ccc3o2)oc(=O)c(C)c1O` [Example 207, 6-(5-(cyclohexylmethoxy)benzofuran-2-yl)-3,5-dimethyl-4-hydroxy-2H-pyran-2-one] the value was 10 to 100 µM.
Same read-out and setting: for `Cc1c(-c2cc3cc(OCCOCc4ccccc4)ccc3o2)oc(=O)c(C)c1O` [Example 213, 6-(5-(2-(benzyloxy)ethoxy)benzofuran-2-yl)-3,5-dimethyl-4-hydroxy-2H-pyran-2-one] the value was 10 to 100 µM; for `CCOC(=O)CCCCCOc1ccc2oc(-c3oc(=O)c(C)c(O)c3C)cc2c1` [Example 217, 3,5-dimethyl-6-(5-(5-(ethoxycarbonyl)pentyloxy)benzofuran-2-yl)-4-hydroxy-2H-pyran-2-one], 10 to 100 µM; for `Cc1c(-c2cc3cc(OCC4CCCCN4C(=O)OC(C)(C)C)ccc3o2)oc(=O)c(C)c1O` (stereo not shown) [Example 220, 6-(5-(1-t-butoxycarbonylpiperidin-2-ylmethoxy)benzofuran-2-yl)-3,5-dimethyl-4-hydroxy-2H-pyran-2-one], 10 to 100 µM.
Still for that read-out and setting: for `Cc1c(-c2cc3cc(OC4CCN(C(=O)OC(C)(C)C)CC4)ccc3o2)oc(=O)c(C)c1O` [Example 222, 6-(5-(1-t-butoxycarbonylpiperidin-4-yloxy)benzofuran-2-yl)-3,5-dimethyl-4-hydroxy-2H-pyran-2-one] the value was 10 to 100 µM; for `Cc1c(-c2cc3cc(OCCCCNC(=O)OC(C)(C)C)ccc3o2)oc(=O)c(C)c1O` [Example 224, 6-(5-(4-(t-butoxycarbonylamino)butoxy)benzofuran-2-yl)-3,5-dimethyl-4-hydroxy-2H-pyran-2-one], 10 to 100 µM; for `Cc1c(-c2cc3cc(OCc4ccccc4[N+](=O)[O-])ccc3o2)oc(=O)c(C)c1O` [Example 230, 3,5-dimethyl-4-hydroxy-6-(5-(2-nitrobenzyloxy)benzofuran-2-yl)-2H-pyran-2-one], 10 to 100 µM.

The assay is the same for the next values; noted with them: Homo sapiens, HepG2; group criterion, alternatives: IC50 less than 10 μM, or at least 30% inhibition at 1 μM, or at least 50% inhibition at 10 μM.
Take `Cc1c(-c2cc3cc(OCc4ccc(Cl)cc4Cl)ccc3o2)oc(=O)c(C)c1O` [Example 153, 6-(5-(2,4-dichlorobenzyloxy)benzofuran-2-yl)-3,5-dimethyl-4-hydroxy-2H-pyran-2-one]: the IC50 is less than 10 µM.
On the same count and under the same terms, for `Cc1c(-c2cc3cc(OCc4ccc(Cl)c(Cl)c4)ccc3o2)oc(=O)c(C)c1O` [Example 159, 6-(5-(3,4-dichlorobenzyloxy)benzofuran-2-yl)-3,5-dimethyl-4-hydroxy-2H-pyran-2-one] the value was less than 10 µM; for `CCCCOc1ccc(COc2ccc3oc(-c4oc(=O)c(C)c(O)c4C)cc3c2)cc1` [Example 163, 6-(5-(4-n-butoxybenzyloxy)benzofuran-2-yl)-3,5-dimethyl-4-hydroxy-2H-pyran-2-one], less than 10 µM; for `Cc1c(-c2cc3ccc(OC4CCCc5ccccc54)cc3o2)oc(=O)c(C)c1O` (stereo not shown) [Example 170, 3,5-dimethyl-4-hydroxy-6-(6-(1,2,3,4-tetrahydronaphthalen-1-yloxy)benzofuran-2-yl)-2H-pyran-2-one], less than 10 µM.
The same measure, in the same setting: for `C#CCOc1ccc2oc(-c3oc(=O)c(C)c(O)c3C)cc2c1` [Example 215, 3,5-dimethyl-4-hydroxy-6-(5-(2-propyn-1-yloxy)benzofuran-2-yl)-2H-pyran-2-one] the value was less than 10 µM; for `Cc1c(-c2cc3cc(OCc4cccc(F)c4)ccc3o2)oc(=O)c(C)c1O` [Example 226, 3,5-dimethyl-6-(5-(3-fluorobenzyloxy)benzofuran-2-yl)-4-hydroxy-2H-pyran-2-one], less than 10 µM.
Same read-out and setting: for `Cc1c(-c2cc3cc(OCc4ccc(F)cc4)ccc3o2)oc(=O)c(C)c1O` [Example 228, 3,5-dimethyl-6-(5-(4-fluorobenzyloxy)benzofuran-2-yl)-4-hydroxy-2H-pyran-2-one] the value was less than 10 µM.
